# From publication PMC11763059, “GENI as an AMPK Activator Binds α and γ Subunits and Improves the Memory Dysfunction of Alzheimer’s Disease Mouse Models via Autophagy and Neuroprotection” (Antioxidants, 2025)
# Experiments:
# [1] = target: T1, AMPK-s5 (γ subunit- D156A) (Rattus norvegicus, UniProt P54645+P80385, D156A); assay: SPR analysis, AMPK mutant s5; format: binding
# T1 construct: His (N); made in house
# Experimental: Mammalian AMPK subunits (His-α1, β1, and γ1) were cloned into a pET-3d vector, and protein expression and purification were similar to the literature.
# SPR analysis was performed with a Biacore T200 instrument (GE Healthcare). Firstly, the purred His-tagged AMPK containing α1β1γ1 protein was captured onto an activated carboxymethylated 5 (CM5) chip using amine coupling to levels ranging from 4000 RU to 6000 RU. Secondly, GENI was dissolved in PBS-P buffer solution (0.05% (v/v) Tween 20 and PBS), and the concentration of GENI was 64 μM. Thirdly, the solution of GENI was diluted to 32 μM, 16 μM, 8 μM, 4 μM, 2 μM, 1 μM and 0.5 μM with PBS-P buffer solution. The sample was filtered by pumping through a […] membrane. A gradient concentration of GENI was injected at a flow rate of 30 μL/min in a running buffer (0.05% (v/v) Tween 20 and PBS). The data were analyzed with Biacore evaluation software (T200 version 2.0) and fitted to the 1:1 Langmuir binding model, and the kinetic parameters were derived.
# The non-covalent interaction between drugs and proteins is an important way to exert drug efficacy, and its mode of action and binding affinity usually determine the utilization and biological activity of drugs. AMPK is a heterotrimer complex consisting of an α subunit containing the kinase domain and two regulatory subunits (β- and γ-). […]
# BV-2 microglia = assay: BV-2 microglial activity assay (Iba1 staining); format: cell-based, murine; conditions: GENI 1, 3, and 10 μM, LPS 1 μg/mL
# Experimental: BV-2 cells (2.5 × 10^4) were seeded in 24-well plates. […] We then removed the medium, washed the cells three times with PBS, and fixed the cells with 4% paraformaldehyde (500 μL/well) for 20 min at room temperature. We washed the cells three times with PBS and added Quick Block^TM immunostaining blocking solution (500 μL/well) to block for 60 min. After removing the blocking solution, we added 200 μL of the primary antibody (Anti-Iba1 rabbit monoclonal antibody, 1:1000, abcam178847) to each well and incubated the samples overnight at 4 °C. The next day, the supernatant was discarded, washed three times with PBS, and incubated with the secondary antibody Cart anti-rabbit IgG (1:1000) at room temperature for 1 h. Nuclei were stained with DAPI (250 μL/well) for 5 min, and the fluorescence was observed under a fluorescent inverted microscope (Olympus IX53, Tokyo, Japan).
# [2] = tested on: AMPK/mTOR/ULK1/LC3B signaling pathway; assay: Western blot of autophagy signaling pathway proteins; format: cell-based; conditions: after giving GENI; PC12 cells and mouse hippocampus and cerebral cortex (Extended Data Figure S3a–f)
# Experimental: Western blot analysis for p-AMPK α, AMPK α, p-mTOR, mTOR, p-ULK1, ULK1, and LC3-I/II was conducted according to the information described in the materials and methods section of Supplementary Information.
# 1.3. Western blot analysis.
# For PC12 cell samples, we seeded 2 × 10^6 PC12 cells in each 60 mm dish containing 5 mL of DMEM and incubated the dish for 24 h. For the dose-dependent experiment of GENI, GENI (1, 3 and 10 μM) was added to the dishes and incubated for a period of time (2 hours for p-AMPK α, AMPK α, 48 hours for p-mTOR, mTOR and p-ULK1, ULK1; 8 hours for LC3-I/II). Cells were then collected, lysed using RAPI lysis buffer and centrifuged. The supernatants of each group were used as protein samples. […]
# The supernatants of each group were used as protein samples. For animal samples, an appropriate amount of tissue, such as cerebral cortex and hippocampus (50–100 mg), of each group was weighed, and we added lysis buffer with 1:9 ratios. After grinding and centrifuging, the supernatants of each group were used as protein samples. The protein concentration was measured with a BCA assay kit (Beijing Cowin Biotech Company, Beijing, China). Sodium dodecyl sulphate polyacrylamide gel electrophoresis (SDS-PAGE) was used to separate proteins (15 μg), which were transferred to PVDF membranes. The membrane was incubated with primary and secondary antibodies (Supplementary Table S5 for details). Antigens were visualised using a high-sensitivity chemiluminescence detection kit (Beijing Cowin Biotech Company, Beijing, China). Bands were quantitatively measured using ImageJ software (National Institutes of Health, Bethesda, MD, USA).
# T1 sequence (P54645 13-559 limits assumed): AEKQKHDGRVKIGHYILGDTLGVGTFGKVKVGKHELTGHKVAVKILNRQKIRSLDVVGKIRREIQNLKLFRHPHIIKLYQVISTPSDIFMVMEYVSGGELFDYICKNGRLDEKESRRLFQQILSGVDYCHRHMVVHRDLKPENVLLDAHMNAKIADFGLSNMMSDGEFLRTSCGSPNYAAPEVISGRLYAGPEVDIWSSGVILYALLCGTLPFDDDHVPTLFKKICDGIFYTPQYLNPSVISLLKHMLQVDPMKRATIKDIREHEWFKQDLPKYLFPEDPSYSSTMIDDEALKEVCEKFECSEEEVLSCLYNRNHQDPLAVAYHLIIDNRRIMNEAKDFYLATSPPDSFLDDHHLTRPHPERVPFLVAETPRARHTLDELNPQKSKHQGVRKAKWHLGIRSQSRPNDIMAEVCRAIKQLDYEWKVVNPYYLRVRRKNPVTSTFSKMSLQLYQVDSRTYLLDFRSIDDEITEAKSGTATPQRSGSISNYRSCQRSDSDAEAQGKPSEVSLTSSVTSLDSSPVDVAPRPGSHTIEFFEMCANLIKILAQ
# T1 sequence (P80386 whole entry partner): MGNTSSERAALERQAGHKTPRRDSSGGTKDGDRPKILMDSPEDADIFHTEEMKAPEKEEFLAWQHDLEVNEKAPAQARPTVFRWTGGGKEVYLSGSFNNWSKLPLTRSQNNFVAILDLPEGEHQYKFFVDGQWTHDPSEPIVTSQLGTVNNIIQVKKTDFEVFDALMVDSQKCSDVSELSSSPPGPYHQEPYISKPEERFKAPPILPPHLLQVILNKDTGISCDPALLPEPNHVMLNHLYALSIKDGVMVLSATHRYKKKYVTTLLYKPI
# T1 sequence (P80385 whole entry D156A): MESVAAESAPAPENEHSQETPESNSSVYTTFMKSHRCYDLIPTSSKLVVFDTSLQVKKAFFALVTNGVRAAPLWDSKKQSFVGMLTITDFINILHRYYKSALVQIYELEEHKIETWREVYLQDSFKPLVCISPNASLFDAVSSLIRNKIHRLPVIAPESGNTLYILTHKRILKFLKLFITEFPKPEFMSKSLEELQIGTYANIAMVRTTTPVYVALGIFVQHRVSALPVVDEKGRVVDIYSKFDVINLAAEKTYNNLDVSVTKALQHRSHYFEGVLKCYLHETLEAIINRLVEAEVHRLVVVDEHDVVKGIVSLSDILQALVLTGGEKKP
compound,measurement,setting,value
"CC(C)CCOC(=O)C1=CO[C@@H](O[C@@H]2O[C@H](CO)[C@@H](O)[C@H](O)[C@H]2O)C2C(CO)=CCC12 (stereo partly shown) [GENI, Geniposidic 4-isoamyl ester]",kon,"[1]; SPR, association rate, read-out: Ka",2140 M⁻¹ s⁻¹
same,dose-dependent relationship in SPR,[1]; point mutation of D156,dose-dependent relationship was lost
same,LPS-induced activation in BV-2 microglia,BV-2 microglia,inhibiting
same,LC3B at protein level,[2],increase
same,phosphorylate-AMPK at protein level,[2],increase
same,phosphorylate-ULK1 at protein level,[2],increase
same,phosphorylate-mTOR at protein level,[2],reduction
